In patent US5922335A, “Uses for ascorbyl-phosphoryl-cholesterol in topical compositions” (Avon Products, Inc., priority 1998, dated 1999):

What was measured:
[1] = Hydroxyl radical scavenging activity by Electron Spin Resonance (DMPO, H2O2/FeSO4); assay type: biochemical; details: for Relative Peak Height (RPH): control 100.0; for Peak Height: pH 7.4
Protocol: Hydroxy radical scavenging activity was measured according to an art accepted method. (See Liu et al. Antioxidant Action of Guilingji in the Brain of Rats with FeCl3-induced Epilepsy, Free Radical Biol. & Med., (9:451-545, 1990.) Sample solutions of 3'-(L-ascorbyl-2-o-phosphoryl)-cholesterol of varying concentrations were prepared by dissolving 3'-(L-ascorbyl-2-o-phosphoryl)-cholesterol in 0.1M potassium phosphate buffer (pH=7.4). The following solutions were also prepared: 0.18M 5,5-dimethyl-1-pyrooline-N-oxide (hereinafter "DMPO") in 0.1M potassium phosphate buffer; 2 mM hydrogen peroxide (hereinafter "H2 O2 ") in 0.1M potassium phosphate buffer; and 0. 2 mM iron(II) sulfate (hereinafter "FeSO4 ") in distilled water. Fifty (50) […] of each of the aforedescribed solutions and […] of a sample solution were mixed for thirty (30) seconds and then placed in a flat cell. The Electron Spin Resonance was then measured using Free Radical Monitor JES-FR30, manufactured by JEOL, Tokyo, Japan, (hereinafter "FRM"). The FRM normalized all spectra for calculation by using an internal standard of manganese dioxide (hereinafter "MnO2 "). All peak heights were compared to the constant MnO2 signal generated. Each sample peak height was then divided by the MnO2 peak height to provide a relative peak height (hereinafter "RPH").

[2] = test system: cultured human keratinocytes; assay: Triglyceride biosynthesis in cultured normal human keratinocytes (3H-acetate incorporation); assay type: cell-based; details: 10 mM; 18.5 hours, then 3 hours with 3H-acetate; FIG. 1
Protocol: Normal human keratinocytes (hereinafter "NHK") were cultured and then divided into three groups. Each of the three groups were grown in various media for 18.5 hours, the various media being as follows:
1 mM "cold" sodium acetate
10 mM Cholesterylmonophosphate (CMP)
10 mM 3'-(L-ascorbyl-2-o-phosphoryl)-cholesterol
At the conclusion of 18.5 hours, 3H-acetate sodium salt (product number NEN#003H, 6.08 ci/mMole) was added to each group at 3 uCi/ml. The three groups were incubated at 37° C. for an additional 3 hours.
At the conclusion of the incubation period, each group was washed three times with iced PBS. The cells were then collected, sonicated and aliquated for lipid extraction using Bligh/Dyer method and for protein quantification.
The lipid extracts were subfracationated by Thin Layer Chromatography. Proteins were quantitated by Bradford assay.
Triglyceride biosythesis in cultured human keratinocytes is measured as a function of incorporation of 3-H acetate. The incorporation of 3-H acetate is expressed as counts per minute per milligram of 3-H acetate (cpm/mg 3H acetate). The results are illustrated in FIG. 1.

human skin fibroblasts = assay: Collagen biosynthesis by cultured human skin fibroblasts ([3H]-Proline Incorporation Assay); assay type: cell-based; details: 48 hours; for collagen biosynthesis, Dpm × 10^-3 / mg protein: control 1.55; for collagen biosynthesis, Dpm × 10^-5 / mg DNA: control 14.43
Protocol: An art-recognized [^3 H]-Proline Incorporation Assay was performed with differne does of 3'-(L-ascorbyl-2-o-phosphoryl)-cholesterol. Juva, Anal. Biocheml, Vol, 15, PAGES 77-83 (1966); Booth, Biochem. Biophys. Acta, Vol. 675, pages 117-122 (1981).
After the first 24 hours [^3 H]-labeled proline was added to the culture. Following the second 24 hour period, the cells are harvested and prepared for the collagen biosynthesis assay.
Protease inhibitors are added to prevent degradation of collagen and other proteins. The cell layer is scraped into a solution containing 0.4 M NaCl and 0.01 M Tris (pH 7.5). Extracts are sonicated to disrup cell membranes. Saparate volumes of the cell-containing solution (1 ml each) are dialyzed overnight against several changes of deionized water. The retentate is removed from dialysis and hydrolyzed in 6 N hydrochloric acid at 120 degrees C. overnight. The assay is performed using an oxidation process with 2 M chloramine-T. Samples are analyzed for radioactive counts, with represent the amount of newly synthesized [^3 H]-labeled proline - - - an index for new collagen synthesis.

Human elastin promoter = assay: Inhibition of elastin gene promoter activity in UVB-irradiated cultured dermal fibroblasts transfected with promoter-reporter molecules; assay type: cell-based; details: for % Inhibition of elastin promoter activity at 6 hours / % Inhibition of elastin promoter activity at 12 hours: 100 μ Solution
Protocol: An art recognized method for evaluating the molecular events associated with increased elastin production was performed by measuring the activity of the elastin gene promoter, which is responsible for the activation of elastin gene transcription. (Bernstein, E. et al. 1995 Jour. Invest. Dermatol. 105:269-273).
Human elastin promoter molecules were linked to reporter molecules. The promoter-reporter linked molecules were then transfected into cultured dermal fibroblasts. Previous studies indicate that exposure of cultured fibroblasts to UVB radiation results in upregulation of elastin promoter activity. However, it is believed that UVA radiation may have an indirect effect on solar-induced elastosis.
Solutions of 1 μM to 100 μM of each 3'-(L-ascorbyl-2-o-phosphoryl)-cholesterol and ascorbic acid were produced. These solutions were then supplied to cultured fibroblasts. The control consisted of cultured fibroblasts in media containing neither 3'-(L-ascorbyl-2-o-phosphoryl)-cholesterol nor ascorbic acid.
The cultured fibroblasts were irradiated with single, dose of UVB radiation (5.5 mJ/cm^2) using an FS-40 light source. The spectrum of effectiveness of the FS-40 light source is estimated at 80 to 90% attributable to UVB. It is believed that 10 to 20% of the effectiveness of the FS-40 light source is attributable to […]. The activity attributable to UVA is believed to be negligible.

[3] = Superoxide anion scavenging by Electron Spin Resonance (hypoxanthine-xanthine oxidase system); assay type: biochemical; details: about 2.5 mg/ml; pH 7.4
Protocol: Superoxide anion scavenging ability was estimated according to the method described in the Liu et al. article noted above. Superoxide anion was generated by a hypoxanthine (hereinafter "HPX")-xanthine oxidase (hereinafter "XOD") system. The following solutions were prepared: 50 μl of 4 mM HPX in 0.1M potassium phosphate buffer; 30 μl of dimethyl sulfoxide, 50 μL of sample; 20 μL OF […] DMPO in 0.1M potassium phosphate buffer; and, 50 μl of XOD (0.4 units/ml) in 0.1M potassium phosphate buffer. The pH of the 0.1M potassium phosphate buffer was 7.4. The solutions of HPX, DMSO, DMPO, XOD and sample were mixed and transferred into a 200 μl-capacity flat cell. Electron Spin Resonance spectra was analyzed.

Compound: CC(C)CCC[C@@H](C)[C@H]1CC[C@H]2[C@@H]3CC=C4C[C@@H](OP(=O)(O)OC5=C(O)[C@@H]([C@@H](O)CO)OC5=O)CC[C@]4(C)[C@H]3CC[C@]12C [3'-(L-ascorbyl-2-o-phosphoryl)-cholesterol]
- hydroxyl radical scavenging (in words) [1]: effective scavenger of hydroxyl radicals
- Relative Peak Height (RPH) ([1]; 0.0391 mg/ml): 100.0
- Peak Height ([1]; 0.0391 mg/ml): 1.60
- Relative Peak Height (RPH) ([1]; 0.0782 mg/ml): 85.0
- Peak Height ([1]; 0.0782 mg/ml): 1.36
- Relative Peak Height (RPH) ([1]; 0.1563 mg/ml): 78.1
- Peak Height ([1]; 0.1563 mg/ml): 1.25
- Relative Peak Height (RPH) ([1]; 0.3125 mg/ml): 57.5
- Peak Height ([1]; 0.3125 mg/ml): 0.92
- Relative Peak Height (RPH) ([1]; 0.6250 mg/ml): 30.6
- Peak Height ([1]; 0.6250 mg/ml): 0.49
- Relative Peak Height (RPH) ([1]; 1.2500 mg/ml): 9.4
- Peak Height ([1]; 1.2500 mg/ml): 0.15
- Relative Peak Height (RPH) ([1]; 2.5000 mg/ml): 5.6
- Peak Height ([1]; 2.5000 mg/ml): 0.09
- triglyceride synthesis in cultured human keratinocytes (in words) [2]: significantly increases triglyceride synthesis in cultured human keratinocytes
- dose dependence of stimulation in human skin fibroblasts (in words) (human skin fibroblasts; 11.3 to 45 μg/ml): increased production of new human skin fibroblasts in a dose dependent manner
- Stimulation - fold Increase of collagen biosynthesis (human skin fibroblasts; 11.3 μl/ml): 2.9 fold
- collagen biosynthesis, Dpm × 10^-3 / mg protein (human skin fibroblasts; 11.3 μl/ml): 5.17 Dpm × 10^-3 / mg protein
- collagen biosynthesis, Dpm × 10^-5 / mg DNA (human skin fibroblasts; 11.3 μl/ml): 42.07 Dpm × 10^-5 / mg DNA
- Stimulation - fold Increase of collagen biosynthesis (human skin fibroblasts; 22.5 μl/ml): 3.3 fold
- collagen biosynthesis, Dpm × 10^-3 / mg protein (human skin fibroblasts; 22.5 μl/ml): 5.02 Dpm × 10^-3 / mg protein
- collagen biosynthesis, Dpm × 10^-5 / mg DNA (human skin fibroblasts; 22.5 μl/ml): 48.31 Dpm × 10^-5 / mg DNA
- Stimulation - fold Increase of collagen biosynthesis (human skin fibroblasts; 45.0 μl/ml): 6.4 fold
- collagen biosynthesis, Dpm × 10^-3 / mg protein (human skin fibroblasts; 45.0 μl/ml): 11.07 Dpm × 10^-3 / mg protein
- collagen biosynthesis, Dpm × 10^-5 / mg DNA (human skin fibroblasts; 45.0 μl/ml): 92.25 Dpm × 10^-5 / mg DNA
- effect on elastin promoter activity in cultured fibroblasts (in words) (Human elastin promoter; 1 μM to 100 μM, UVB 5.5 mJ/cm^2): decreased elastin promoter activity in cultured fibroblasts in a dose dependent manner
- degree of elastin promoter inhibition compared with ascorbic acid (in words) (Human elastin promoter; 1 μM to 100 μM, compared to ascorbic acid): exhibits a far superior degree of elastin promoter inhibition
- % Inhibition of elastin promoter activity at 6 hours (Human elastin promoter; UVB 5.5 mJ/cm^2): 43%
- % Inhibition of elastin promoter activity at 12 hours (Human elastin promoter; UVB 5.5 mJ/cm^2): 34%
- duration of elastin promoter inhibition compared with ascorbic acid (in words) (Human elastin promoter; compared to ascorbic acid): inhibits elastin promoter activity for a significantly longer period of time than ascorbic acid
- inhibition of the formation of the superoxide [3]: 50%

Compound: O=C1O[C@H]([C@@H](O)CO)C(O)=C1O [Ascorbic Acid, ascorbic acid, reference compound]
- % Inhibition of elastin promoter activity at 6 hours (Human elastin promoter; UVB 5.5 mJ/cm^2): 23%
- % Inhibition of elastin promoter activity at 12 hours (Human elastin promoter; UVB 5.5 mJ/cm^2): 0%
